In publication PMC13144739, “Global analysis of cancer cell responses to USP9X inhibition” (The EMBO Journal, 2026):

Key:
[1] = biological target: T1, USP9X catalytic domain (Homo sapiens, UniProt Q93008); experiment: K48-linked di-ubiquitin cleavage assay; format: biochemical; settings: 50 µM compound
T1 construct: His/SUMO (pOPIN-S vector) (N, cleaved yes); made in house; host or cells: E. coli BL21
T1 sequence (Q93008 1551-1970): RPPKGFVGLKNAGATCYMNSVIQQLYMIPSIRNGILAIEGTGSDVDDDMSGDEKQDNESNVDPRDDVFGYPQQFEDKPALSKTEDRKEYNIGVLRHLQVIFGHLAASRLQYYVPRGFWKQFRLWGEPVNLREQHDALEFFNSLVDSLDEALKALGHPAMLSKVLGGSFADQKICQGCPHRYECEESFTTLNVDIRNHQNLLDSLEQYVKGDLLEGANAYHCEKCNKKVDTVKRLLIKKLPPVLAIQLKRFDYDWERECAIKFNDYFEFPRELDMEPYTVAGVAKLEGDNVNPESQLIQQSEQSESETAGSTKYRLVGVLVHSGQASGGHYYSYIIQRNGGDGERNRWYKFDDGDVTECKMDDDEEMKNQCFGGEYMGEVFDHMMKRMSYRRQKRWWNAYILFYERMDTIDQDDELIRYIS
Protocol: For inhibitor activity assays, USP9X catalytic domain (di-ubiquitin cleavage assay: 750 nM, ubiquitin-probe assays: 2.5 µM) was pre-incubated with USP9X inhibitors for 30 min at ambient temperature and subsequently mixed with di-ubiquitin (final concentration 2 µM) in assay buffer (25 mM Tris [pH 8.0], 150 mM NaCl, 10 mM DTT) at pH 8.0 or was mixed with ubiquitin-propargylamide (Ub-PA)/ubiquitin-vinyl sulfonate (Ub-VS) probes at a final concentration of 10 µM in assay buffer. For both assays, the mixture was incubated over a time course, and the reaction was stopped by mixing samples with 2× LDS sample buffer (Invitrogen) supplemented with 3% (v/v) 2-mercaptoethanol. All protein samples were run on a 4–12% Bis-Tris SDS-PAGE gradient gel (Invitrogen) for 60 min at 140 V. The gel was stained with InstantBlue® (Abcam) and imaged.

[2] = test system: T2, USP9X; experiment: DUB IP-MS in MCF-7 cell lysates, USP9X; format: biochemical, human; settings: 50 µM
T2 construct: endogenous in cells; host or cells: MCF-7 cell lysate
Protocol: MCF-7 cells have been profiled for active DUBs previously (Pinto-Fernández et al, [2019]). Lysates were generated as described by others (Turnbull et al, [2017]) using 30 s freeze-thaw cycles (thrice) in lysis buffer (50 mM Tris [pH 7.4], 5 mM MgCl2 × 6 H2O, 0.5 mM EDTA [pH 8.0], 250 mM sucrose and 1 mM DTT) at pH 7.5. […] A pre-treatment of cell lysates with 0.5 µg Ub-VS was included for a baseline DUB response to the Ub-VS probe. 0.1 µg 3X-FLAG-Ub-VS probe was added to samples and incubated for 5 min at 37 °C. […] Samples were washed thrice with lysis buffer and eluted from the resin with lysis buffer supplemented with 1% (w/v) SDS following a 10 min incubation. Two consecutive elutions were pooled, and samples were stored at −80 °C until processing.
DNA was hydrolysed with the addition of 2 µL neat TFA, and lysates were neutralised to pH 8.5 by the addition of 1 M Tris-HCl as previously described (Dagley et al, [2019]). Protein concentration was determined using Pierce™ BCA Protein Assay Kit (Thermo Fisher Scientific) following the manufacturer’s instructions. For DUB IP-MS, samples were processed using S-Trap spin columns (Profiti) by following the manufacturer’s instructions. […]

[3] = test system: CEP55, MKRN2, EDF1, CHMP2B, DTX3L; experiment: Immunoblotting of commonly depleted USP9X substrates; format: cell-based, human; settings: MiaPaca2 and SK-MEL-2, 24 h; rescued with proteasomal inhibition (MG132)
Protocol: The next day, cells were lysed in DISC lysis buffer (20 mM TRIS/HCl [pH 7.5], 150 mM NaCl, 2 mM EDTA [pH 8.0], 1% [v/v] Triton X 100, 10% [v/v] glycerol) supplemented with 2% (w/v) SDS and PhosSTOP tablets (Roche). To shred DNA, DISC lysates were run through polypropylene columns (Pierce). […] Next, membranes were washed twice in TBS-T and incubated with primary antibodies at 4 °C o/n. Primary antibodies were diluted in antibody dilution buffer (5% [w/v] BSA [pH 5.2, Sigma-Aldrich] in TBS-T with 0.04% [v/v] sodium azide) as per the manufacturer’s instructions. […] Next, membranes were washed four times for 5 min each in TBS-T. Membranes were developed in ECL (Bio-Rad) and imaged using the ChemiDoc imaging system (Bio-Rad). Images were processed using Image Lab software.

[4] = test system: HDFs; experiment: Colony formation assay, HDF; format: cell-based, human; settings: 10 µM, 7–12 days
Protocol: (§1) Cells were seeded at low density (200–4000 cells per well) after initial optimisation in a six-well tissue culture-treated plate (Falcon). Twenty-four hours post seeding, media was replaced, and the inhibitor was added. Cells were left to grow into colonies between 7 and 12 days, depending on the cell line. For analysis, the media was removed, and the cells were fixed with 10% (w/v) formalin for 10 min. Colonies were stained with crystal violet (Sigma-Aldrich, 0.5% [w/v] in 20% [v/v] MeOH) for 10 min and washed thrice with distilled H2O. Plates were imaged using the ChemiDoc imaging system (Bio-Rad) and analysed using the ImageJ ColonyArea plugin as described previously (Guzmán et al, [2014]).

[5] = test system: MDA-MB-231 cells; experiment: Colony formation assay, MDA-MB-231; format: cell-based, human; settings: 10 µM, 7–12 days
Protocol: as §1

[6] = test system: MiaPaca2 cells; experiment: Colony formation assay, MiaPaca2; format: cell-based, human; settings: 10 µM, 7–12 days
Protocol: as §1

[7] = test system: ACHN cells; experiment: Colony formation assay, ACHN; format: cell-based, human; settings: 10 µM, 7–12 days
Protocol: as §1

[8] = test system: UO-31 cells; experiment: IncuCyte live-cell imaging cell death (PI uptake), UO-31; format: cell-based, human
Protocol: Cells were seeded at varying densities (1000–8000 cells per well) after initial optimisation in a 96-well tissue culture-treated plate (Thermo Fisher Scientific). Cells were incubated o/n, and the next day, inhibitors and controls diluted in cell media were added to the cells to a final volume of 200 μL per well. Cell death was measured using PI (Sigma-Aldrich). Cells were imaged with four images per well every 2 h for up to 96 h using the IncuCyte live-cell analysis system (S3, Sartorius). Cell proliferation data were analysed using Microsoft Excel by normalising confluence to control conditions. For cell killing readouts, the number of PI-positive cells was normalised to the control conditions for each timepoint.

[9] = test system: PANC-1 cells; experiment: Colony formation assay, PANC-1; format: cell-based, human; settings: 10 µM, 7–12 days
Protocol: as §1

Cc1[nH]c2ccc(C(=O)N3CCN(S(=O)(=O)c4ccc5c(c4)OCCO5)CC3)cc2c1C [WEHI-092]
cleavage of K48-linked di-ubiquitin [1]: inhibited cleavage of K48-linked di-ubiquitin
inhibition of USP9X in MCF-7 lysate (DUB IP-MS) [2]: inhibited all active USP9X in the lysate
MKRN2, CHMP2B and DTX3L protein levels (Western Blot) [3]: led to protein depletion
clonogenic potential, HDF [4]: limited or no effects
clonogenic potential, MDA-MB-231 [5]: strong decrease in proliferative capacity
clonogenic potential, MiaPaca2 [6]: strong decrease in proliferative capacity
clonogenic potential, ACHN [7]: apparent increase in cell proliferation
cell killing of UO-31 cells (IncuCyte) [8]: killed
clonogenic potential, PANC-1 [9]: strong decrease in proliferative capacity
